Assay results: US20030047295A1, “Bio-bleaching of pulp using laccase, mediator, and chain transfer agent” (priority 2001, published 2003)

Assay: Pulp bleaching, delignification measured as Kappa number (TAPPI T236 cm-85)
Settings: for Kappa No.: 2 g pulp, starting Kappa 31
Protocol: Delignification of the pulp was measured as the change in Kappa number according to the TAPPI method T236 cm-85. A typical procedure is as follows. A known mass of paper pulp (containing lignin) is reacted with an excess of potassium permanganate in an acid solution for a specified period of time to oxidize the lignin. After the reaction, the residual permanganate is determined by titration. The Kappa number is defined as the volume (ml) of 0.1N potassium permanganate consumed by 1 g of moisture-free pulp in 0.5N sulfuric acid after a ten-minute reaction time at 25° C. under conditions such that one-half of the permanganate remains unreacted. A linear relationship with the lignin content of the pulp and the measurement of the Kappa number has already been done on samples as low as 300 mg of pulp.
A softwood Kraft pulp, Kappa number 31.0, was treated with a laccase (NS51003) under the following conditions:
The dried pulp was added to 80 ml of 50 mM phosphate, pH 5.5, and disintegrated in a blender. The pulp was then transferred to a 500 ml conical flask and the blender was washed with 20 ml of the same buffer. The washed buffer and the pulp were combined. The mediator was added at 1-4% (w/w, based on the dry pulp), followed by the addition of the laccase. The pH of the pulp mixture was adjusted to 5.5 if needed. The flask was covered with an aluminum foil with holes punched through and incubated at 50° C. for 16 hrs on a rotary shaker at 200 rpm.
After the enzymatic treatment, the pulp mixture was filtered through a Buchner funnel, and the pulp was washed with water. The pulp from the control experiment was treated at the same pH and temperature as described above.
The washed pulp was then treated with an alkaline solution under the following conditions:
The filtered pulp was repulped in the alkaline solution and incubated at 70° C. for 3 hrs. The pH of the pulp mixture should be between 11.7-12.00 during the entire treatment. After the treatment, the pulp mixture was filtered through a Buchner funnel, and the pulp was washed with water extensively and then dried in a hood overnight.
The delignification of the pulp was measured as a change in Kappa Number according to TAPPI method T236 cm-85.
In this example, we used the typical pulp bleaching experiment as described above. We also used laccase as the enzyme, hardwood black liquor (HWBL) as the mediator, and two chain transfer agents (anthracene and CBr4).

[1] = laccase 100 ul plus HWBL 200 ul as mediator plus chain transfer agent 20 mg

Row | SMILES | Kappa No. [1] | Kappa number reduction (in words) (0.1 ml of the 51003 laccase with the mediator) | Kappa No. (laccase 100 ul plus mediator (HBT 20 mg or HWBL 200 ul), no chain transfer agent)
1 | c1ccc2cc3ccccc3cc2c1 [anthracene] | 25.4 |  | 
2 | On1nnc2ccccc21 [HBT, 1-hydroxybenzotriazole] |  | modest Kappa number reduction | 26.1
3 | BrC(Br)(Br)Br [CBr4, carbon tetrabromide] | 24.4 |  | 
